# Literature values as cited in patent publication US20100158905A1, “COMBINATION THERAPY OF ARTHRITIS WITH TRANILAST” (NUON THERAPEUTICS, INC., priority 2008, published 2010).
# System: rheumatoid arthritis
# Conditions: usual maintenance dose
row,Molecule,Approximate time to benefit
1,O=C(O)c1cc(/N=N/c2ccc(S(=O)(=O)Nc3ccccn3)cc2)ccc1O [Sulfasalazine],1-3 months
2,CN(Cc1cnc2nc(N)nc(N)c2n1)c1ccc(C(=O)N[C@@H](CCC(=O)O)C(=O)O)cc1 [Methotrexate],1-2 months
3,CC(C)(S)[C@@H](N)C(=O)O [D-penicillamine],3-6 months
4,CCN(CCO)CCCC(C)Nc1ccnc2cc(Cl)ccc12 (stereo not shown) [Hydroxychloroquine],2-6 months
5,Etanercept,A few days to 12 weeks
6,Cc1oncc1C(=O)Nc1ccc(C(F)(F)F)cc1 [Leflunomide],4-12 weeks (skewed earlier)
7,Cn1cnc([N+](=O)[O-])c1Sc1ncnc2nc[nH]c12 [Azathioprine],2-3 months

# System: RA
# Conditions: used in combination with methotrexate
row,Molecule,improvements in treating RA
1,infliximab: tumor necrosis factor (TNF) antagonist,marked improvements
2,Etanercept,marked improvements
3,Adalimumab,marked improvements
